For 2 compounds, inhibition results are on record in ChEMBL document CHEMBL5653615 (J Biol Chem, 2013).

Experiment [1] concerns the target T1, Rhodopsin kinase GRK7 (Homo sapiens) (UniProt Q8WTQ7).
T1 sequence (whole entry): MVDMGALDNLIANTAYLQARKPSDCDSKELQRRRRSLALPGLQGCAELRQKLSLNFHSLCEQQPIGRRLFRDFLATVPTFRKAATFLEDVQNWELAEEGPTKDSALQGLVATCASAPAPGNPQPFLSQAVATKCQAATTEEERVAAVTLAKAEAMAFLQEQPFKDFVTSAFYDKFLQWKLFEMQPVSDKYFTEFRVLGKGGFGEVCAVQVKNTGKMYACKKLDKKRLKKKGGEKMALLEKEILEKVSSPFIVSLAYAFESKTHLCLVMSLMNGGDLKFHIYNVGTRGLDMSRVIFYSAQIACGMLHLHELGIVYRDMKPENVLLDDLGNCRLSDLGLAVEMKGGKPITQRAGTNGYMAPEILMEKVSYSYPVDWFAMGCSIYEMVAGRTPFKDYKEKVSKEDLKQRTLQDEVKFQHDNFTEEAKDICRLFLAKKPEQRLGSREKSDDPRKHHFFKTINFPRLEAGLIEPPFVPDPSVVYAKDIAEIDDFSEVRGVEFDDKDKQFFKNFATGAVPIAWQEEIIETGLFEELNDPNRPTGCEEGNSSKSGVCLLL
The experiment can be described thus: Inhibition of human GRK7 at 18.6 nM by HotSpot assay relative to control.

For experiment [2], the target named is Mitogen-activated protein kinase 9 (Homo sapiens) (UniProt P45984). The experiment in a line: Inhibition of human JNK2 at 18.6 nM by HotSpot assay relative to control.
The target of experiment [3] is T2, Lymphokine-activated killer T-cell-originated protein kinase (Homo sapiens) (UniProt Q96KB5).
T2 sequence (whole entry): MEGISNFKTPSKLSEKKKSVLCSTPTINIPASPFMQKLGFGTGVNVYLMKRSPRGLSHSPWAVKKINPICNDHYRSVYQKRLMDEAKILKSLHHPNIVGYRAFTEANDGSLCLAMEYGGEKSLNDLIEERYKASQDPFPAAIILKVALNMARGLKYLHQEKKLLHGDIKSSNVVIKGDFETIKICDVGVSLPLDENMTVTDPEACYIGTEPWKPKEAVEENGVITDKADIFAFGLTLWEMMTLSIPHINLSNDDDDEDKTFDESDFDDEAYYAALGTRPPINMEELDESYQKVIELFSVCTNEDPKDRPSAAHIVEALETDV
The experiment in a line: Inhibition of human TOPK at 18.6 nM by HotSpot assay relative to control.

The target of experiment [4] is T3, Serine/threonine-protein kinase TAO3 (Homo sapiens) (UniProt Q9H2K8).
T3 sequence (whole entry): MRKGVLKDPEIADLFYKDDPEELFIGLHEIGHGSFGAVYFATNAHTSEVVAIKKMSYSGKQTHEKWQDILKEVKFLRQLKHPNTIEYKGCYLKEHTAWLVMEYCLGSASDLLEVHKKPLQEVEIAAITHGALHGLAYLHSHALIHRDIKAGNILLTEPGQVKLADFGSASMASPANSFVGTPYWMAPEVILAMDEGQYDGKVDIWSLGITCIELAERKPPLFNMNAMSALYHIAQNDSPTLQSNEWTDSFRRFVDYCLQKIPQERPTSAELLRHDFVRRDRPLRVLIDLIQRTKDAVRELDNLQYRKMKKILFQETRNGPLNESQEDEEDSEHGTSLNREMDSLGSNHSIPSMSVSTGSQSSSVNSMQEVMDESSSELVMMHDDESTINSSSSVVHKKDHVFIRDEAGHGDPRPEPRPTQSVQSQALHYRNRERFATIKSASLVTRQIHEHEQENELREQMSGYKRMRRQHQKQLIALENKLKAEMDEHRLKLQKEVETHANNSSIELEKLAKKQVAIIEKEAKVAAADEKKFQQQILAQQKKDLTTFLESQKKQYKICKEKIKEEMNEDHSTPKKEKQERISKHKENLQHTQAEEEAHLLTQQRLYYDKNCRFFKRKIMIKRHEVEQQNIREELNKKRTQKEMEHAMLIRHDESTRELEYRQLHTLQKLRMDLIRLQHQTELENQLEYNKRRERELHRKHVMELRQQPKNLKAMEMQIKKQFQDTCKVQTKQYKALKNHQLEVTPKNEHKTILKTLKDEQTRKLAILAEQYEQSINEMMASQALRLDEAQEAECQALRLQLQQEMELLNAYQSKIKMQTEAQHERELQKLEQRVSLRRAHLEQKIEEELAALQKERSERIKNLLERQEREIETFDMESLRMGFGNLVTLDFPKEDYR
The experiment in a line: Inhibition of human JIK at 18.6 nM by HotSpot assay relative to control.

Experiment [5] has as its target RAC-beta serine/threonine-protein kinase (Homo sapiens) (UniProt P31751). The experiment can be described thus: Inhibition of human AKT2 at 1.82 nM by HotSpot assay relative to control.
Experiment [6] has as its target T4, Serine/threonine-protein kinase BRSK2 (Homo sapiens) (UniProt Q8IWQ3).
T4 sequence (whole entry): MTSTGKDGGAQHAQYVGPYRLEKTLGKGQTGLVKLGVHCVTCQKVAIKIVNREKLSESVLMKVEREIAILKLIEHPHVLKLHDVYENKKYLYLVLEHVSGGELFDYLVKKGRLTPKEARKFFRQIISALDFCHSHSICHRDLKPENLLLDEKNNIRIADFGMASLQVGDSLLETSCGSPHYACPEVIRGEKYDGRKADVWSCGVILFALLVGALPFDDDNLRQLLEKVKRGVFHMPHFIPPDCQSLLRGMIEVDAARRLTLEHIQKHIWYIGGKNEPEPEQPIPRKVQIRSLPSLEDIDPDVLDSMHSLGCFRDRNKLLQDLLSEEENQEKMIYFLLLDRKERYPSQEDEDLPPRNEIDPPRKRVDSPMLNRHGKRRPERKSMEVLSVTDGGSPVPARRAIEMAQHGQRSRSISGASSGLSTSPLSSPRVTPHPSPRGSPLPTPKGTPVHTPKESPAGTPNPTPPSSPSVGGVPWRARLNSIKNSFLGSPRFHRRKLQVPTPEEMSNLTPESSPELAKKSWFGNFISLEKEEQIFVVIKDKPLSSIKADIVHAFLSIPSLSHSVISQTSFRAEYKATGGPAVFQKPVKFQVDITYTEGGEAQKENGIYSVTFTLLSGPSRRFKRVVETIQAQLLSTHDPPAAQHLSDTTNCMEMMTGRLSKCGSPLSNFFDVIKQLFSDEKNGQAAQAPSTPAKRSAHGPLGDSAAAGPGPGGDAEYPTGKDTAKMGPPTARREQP
The experiment can be described thus: Inhibition of human BRSK2 at 1.82 nM by HotSpot assay relative to control.

The target of experiment [7] is Cyclin-dependent kinase 7/ cyclin H (Homo sapiens) (UniProt P51946+P50613). The experiment in a line: Inhibition of human CDK7/cyclin H at 1.82 nM by HotSpot assay relative to control. In kind it is protein-complex assay.
The target in experiment [8] is Mitogen-activated protein kinase kinase kinase 8 (Homo sapiens) (UniProt P41279). The experiment in a line: Inhibition of human COT1 at 1.82 nM by HotSpot assay relative to control.
Mitogen-activated protein kinase kinase kinase 8 (Homo sapiens), sequence (P41279 whole entry): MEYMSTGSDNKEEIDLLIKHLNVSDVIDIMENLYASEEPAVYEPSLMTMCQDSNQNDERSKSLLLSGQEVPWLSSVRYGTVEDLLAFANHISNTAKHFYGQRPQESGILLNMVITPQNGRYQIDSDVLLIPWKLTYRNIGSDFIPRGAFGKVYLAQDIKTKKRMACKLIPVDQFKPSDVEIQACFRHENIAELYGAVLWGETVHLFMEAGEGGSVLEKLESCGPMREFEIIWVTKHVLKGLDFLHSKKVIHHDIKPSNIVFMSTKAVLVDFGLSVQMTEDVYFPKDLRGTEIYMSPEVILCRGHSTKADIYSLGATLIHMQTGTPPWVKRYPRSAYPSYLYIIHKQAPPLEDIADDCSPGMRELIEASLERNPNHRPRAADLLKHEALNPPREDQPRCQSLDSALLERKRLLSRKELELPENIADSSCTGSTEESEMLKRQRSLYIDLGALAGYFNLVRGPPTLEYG

RAC-beta serine/threonine-protein kinase (Homo sapiens), sequence (P31751 whole entry): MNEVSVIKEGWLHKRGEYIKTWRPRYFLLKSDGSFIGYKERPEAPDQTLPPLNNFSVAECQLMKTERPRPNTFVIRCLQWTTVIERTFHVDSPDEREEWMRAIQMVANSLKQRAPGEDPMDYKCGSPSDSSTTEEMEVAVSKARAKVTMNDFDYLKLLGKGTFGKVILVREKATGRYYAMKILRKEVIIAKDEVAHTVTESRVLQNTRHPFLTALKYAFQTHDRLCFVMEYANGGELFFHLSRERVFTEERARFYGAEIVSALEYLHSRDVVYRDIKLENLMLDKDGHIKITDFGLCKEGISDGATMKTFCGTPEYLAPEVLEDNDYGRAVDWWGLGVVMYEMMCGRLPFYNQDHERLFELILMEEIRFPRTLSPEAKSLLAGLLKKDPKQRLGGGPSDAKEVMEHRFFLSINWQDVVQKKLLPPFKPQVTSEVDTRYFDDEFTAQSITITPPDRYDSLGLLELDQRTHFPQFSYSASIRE
Mitogen-activated protein kinase 9 (Homo sapiens), sequence (P45984 whole entry, looked up): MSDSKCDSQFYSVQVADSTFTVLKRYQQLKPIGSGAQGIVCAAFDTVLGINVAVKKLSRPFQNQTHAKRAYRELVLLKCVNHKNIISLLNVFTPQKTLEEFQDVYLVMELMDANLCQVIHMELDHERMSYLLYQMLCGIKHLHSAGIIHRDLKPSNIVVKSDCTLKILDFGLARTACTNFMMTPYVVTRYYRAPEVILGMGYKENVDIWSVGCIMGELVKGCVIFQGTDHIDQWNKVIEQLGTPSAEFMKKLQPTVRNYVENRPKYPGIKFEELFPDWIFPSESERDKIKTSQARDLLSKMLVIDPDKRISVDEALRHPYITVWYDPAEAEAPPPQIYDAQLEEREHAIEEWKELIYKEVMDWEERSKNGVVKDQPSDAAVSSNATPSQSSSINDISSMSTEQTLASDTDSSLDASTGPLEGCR

Regarding `C[C@]1(O)C[C@@H](c2nc(-c3ccc4ccc(-c5ccccc5)nc4c3)c3c(N)nccn32)C1`, the inhibition (in general, the drop in the measured response relative to a control, in per cent) in experiment [1] is 0.1%; in experiment [2], -2.37%; in experiment [3], 1.57%; in experiment [4], 4.89%.

Take `C[C@@]1(C(=O)Nc2ccc(F)nc2)CCCN1c1nc(Nc2cc(C3CC3)n[nH]2)c2cccn2n1`: the inhibition is -0.4% in experiment [5], -3.06% in experiment [6], -3.28% in experiment [7] and 10.7% in experiment [8].
